What was measured:
[1] = target: T1, rHuTS (Homo sapiens, UniProt P04818); assay: Preincubation of rHuTS with BVdUMP (enzyme inactivation); assay type: biochemical; conditions: 20 hour incubation with 125 μM BVdUMP, then dUMP as substrate
T1 construct: His tag (from pET-28a(+)) (N); made in house; host or cells: E. coli BL21 (DE3)/pET-28a(+)
Procedure: Human thymidylate synthase was pre-incubated in reaction mixtures with and without 125 μM BVdUMP. After 20 hours, BVdUMP was added to a concentration of 125 μM, dUMP to a final concentration of 125 μM, and N5, N10-methylene tetrahydrofolate was added to 70 μM. Thymidylate synthase activity was determined by measuring the increase in A340. Solid circles (preincubated reaction), Open circles (no preincubation).
To help further clarify this situation, an extended incubation of rHuTS with BVdUMP was done in order to measure any inactivation that may occur over a period of time longer than that in which the kinetics were performed (FIG. 2).

[2] = target: T2, rHuTS (recombinant human thymidylate synthase) (Homo sapiens, UniProt P04818); assay: Enzyme kinetics of rHuTS with dUMP and BVdUMP; assay type: biochemical
T2 construct: His tag (from pET-28a(+)) (N); made in house; host or cells: E. coli BL21 (DE3)/pET-28a(+)
T2 sequence (P04818 whole entry): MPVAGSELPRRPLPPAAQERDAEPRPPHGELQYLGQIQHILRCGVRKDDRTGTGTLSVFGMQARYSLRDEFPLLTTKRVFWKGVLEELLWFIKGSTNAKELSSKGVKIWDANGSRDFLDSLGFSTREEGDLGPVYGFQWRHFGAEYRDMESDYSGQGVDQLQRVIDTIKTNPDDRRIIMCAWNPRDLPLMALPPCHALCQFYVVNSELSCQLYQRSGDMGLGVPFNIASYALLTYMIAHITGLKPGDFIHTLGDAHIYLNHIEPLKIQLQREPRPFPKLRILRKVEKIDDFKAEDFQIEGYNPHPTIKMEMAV
Procedure: Enzyme Preparation. Cloned human thymidylate synthase plasmid pBCHTS was subcloned into E. coli. BL21 (DE3)/pET-28a(+) (Novagen) using the Ndel ñSacI insertion site, in order to add an amino terminal His tag. Enzyme was expressed in E. coli. by induction with IPTG, and purified by affinity chromatography on a Ni^2+ His Bind metal chelation resin (Novagen). The column Ni^2+ His Bind metal chelation column was washed with 20 mM Tris pH 7.9, 5 mM imidazole, 0.5M NaCl; thymidylate synthase activity was eluted with 20 mM Tris pH 7.9, 60 mM imidazole, 0.5M NaCl.
(§1) Enzyme Assays and Kinetic Measurements. Thymidylate synthase assays were done in 96 well Costar UV transparent plates in a reaction volume of 200 μL, consisting of 40 mM Tris pH 7.5, 25 mM MgCl2, 1 mM EDTA, 25 mM-mercaptoethanol, 125M dUMP, and 65 μM N5, N10-methylene tetrahydrofolate indicated. Tetrahydrofolate stock solutions were prepared by dissolving tetrahydrofolic acid (Sigma) directly into 0.2M Tris pH 7.5, 0.5 M-mercaptoethanol; stock solutions were stored at −80° C. N5, N10-methylene tetrahydrofolate was prepared by adding 12 μl of 3.8% formaldehyde to 1 ml of a 0.65 mM solution of tetrahydrofolate and incubating for 5 minutes at 37° C. N5, N10-methylene tetrahydrofolate was kept on ice and used within 2 hours of preparation.
Enzyme kinetic constants (Km and Vmax) were determined for the human thymidylate synthase substrates dUMP and BVdUMP using the enzyme assay conditions described above. The initial rates of the enzyme reactions was determined by measuring the increase in A340 for the reaction with dUMP, and decrease in A294 for the reaction with BVdUMP. The catalytic efficiency of the enzyme (Kcat/Km) was calculated from the kinetic constants Km and Vmax.

[3] = target: T3, Lactobacillus casei TS (Lacticaseibacillus casei, UniProt P00469); conditions: cited from earlier work
T3 sequence (P00469 1-316): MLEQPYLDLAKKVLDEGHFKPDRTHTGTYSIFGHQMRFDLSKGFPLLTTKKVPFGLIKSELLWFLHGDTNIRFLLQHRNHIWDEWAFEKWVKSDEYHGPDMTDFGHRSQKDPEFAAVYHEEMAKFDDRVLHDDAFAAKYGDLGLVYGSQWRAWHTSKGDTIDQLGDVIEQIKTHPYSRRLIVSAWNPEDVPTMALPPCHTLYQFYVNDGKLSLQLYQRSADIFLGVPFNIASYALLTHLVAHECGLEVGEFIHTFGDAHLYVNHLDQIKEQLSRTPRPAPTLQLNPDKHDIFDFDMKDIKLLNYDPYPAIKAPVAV

[4] = target: T1, rHuTS; assay: Inhibition of rHuTS reactions by Tomudex and 5-FdUMP (initial rates); assay type: biochemical; conditions: 30° C., fluorescence 340/595 nm
Procedure: as §1
Conversion of BVdUMP to fluorescent product(s) by thymidylate synthase was measured in 200 μl thymidylate synthase reactions containing 125M BVdUMP in 96 well Dynex Microfluor Black “U” bottom microtiter plates using an excitation wavelength of 340 nm and emission wavelength of 595 nm. Fluorescence was measured with a Tecan Spectrafluor Plus fluorimeter.

T1 sequence (P04818 whole entry): as the sequence (P04818 whole entry) above

## O=c1[nH]c(=O)n([C@H]2C[C@H](O)[C@@H](COP(=O)(O)O)O2)cc1/C=C/Br [BVdUMP, Bromovinyl, 2′-Deoxyuridine Monophosphate]
[1]
  inactivation of rHuTS: little or no enzymatic inactivation
[2]; rHuTS
  Kcat: 0.0067 s⁻¹
[2]; rHuTS, dUMP reaction, read-out: Kl (of BVdUMP)
  Ki: 4.5 µM
[2]; rHuTS, substrate
  Km: 16 µM
[2]; relative to endogenous substrate dUMP
  improved efficiency of conversion of BVdUMP, human enzyme vs L. casei enzyme: > 6.4 fold
[3]
  Kcat: 0.018 s⁻¹
[3]; dUMP reaction, read-out: Kl (of BVdUMP)
  Ki: 0.6 µM
[3]; substrate
  Km: 3.3 µM
[4]; BVdUMP + THF
  initial rate of rHuTS reaction, No Inhibitor: 109 ± 16 RFU/min
[4]; BVdUMP − THF
  initial rate of rHuTS reaction, No Inhibitor: 75 ± 11 RFU/min
